Eight molecules from patent publication EP4741420A1, “PHARMACEUTICAL COMPOSITION FOR PREVENTING OR TREATING OBESITY COMPRISING GLP ANALOGUE AS ACTIVE INGREDIENT” (priority 2023, dated 2025) can be followed below.

In one data set the target is T1, GLP-2 (Homo sapiens, UniProt O95838).
T1 sequence (O95838 1-553): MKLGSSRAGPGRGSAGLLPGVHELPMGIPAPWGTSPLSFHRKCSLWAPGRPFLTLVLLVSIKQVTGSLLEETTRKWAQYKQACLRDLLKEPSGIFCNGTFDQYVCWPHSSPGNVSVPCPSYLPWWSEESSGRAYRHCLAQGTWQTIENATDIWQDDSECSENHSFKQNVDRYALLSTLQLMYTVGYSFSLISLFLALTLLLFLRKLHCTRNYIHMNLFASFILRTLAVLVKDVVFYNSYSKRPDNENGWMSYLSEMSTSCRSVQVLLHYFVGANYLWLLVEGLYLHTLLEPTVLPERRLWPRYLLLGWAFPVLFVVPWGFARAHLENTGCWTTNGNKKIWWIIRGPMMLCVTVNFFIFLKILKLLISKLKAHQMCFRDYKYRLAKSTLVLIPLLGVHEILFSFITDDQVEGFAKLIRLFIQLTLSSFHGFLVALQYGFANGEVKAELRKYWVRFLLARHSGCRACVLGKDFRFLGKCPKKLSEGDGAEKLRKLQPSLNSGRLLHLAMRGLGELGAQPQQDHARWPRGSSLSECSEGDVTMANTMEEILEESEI
Nature of the data set: GLP-2 activity, cell-based cAMP assay (same method as Example 2).

Data set [1] can be described thus: Mouse PK after single subcutaneous administration, LC-MS/MS of plasma. As to conditions: for Tmax / half-life / AUC(0-t) / Cmax: mouse, in vivo, sc; for Cmax: read-out: Cmax. In kind it is in vivo, mice. The procedure: Each of the experimental groups and the control was subcutaneously administered once to the dorsal area of a total of 12 mice using a 1 mL syringe equipped with a 26-gauge needle at a dose of 0.2 mg/5 mL/kg. After drug administration, approximately 0.04 to 0.05 mL of blood was collected per individual at the time scheduled for the orbital vein (4 mice were alternately sampled), and the blood collection times were 1, 2, 4, 8, 24 ,32 ,48, 56, 72, 96, and 120 hours. All plasma samples were analyzed using a self-developed LC-MS/MS assay. Pharmacokinetic analysis of blood drugs was performed using non-compartmental analysis, and analysis of pharmacokinetic parameters was performed using Phoenix WinNolin 64 (Version. 8.3.5 340).

Data set [2] deals with GLP-1R (on GLP-1R/CHO cells, DiscoverX 95-0062C2) (UniProt P43220 24-463). Nature of the data set: cell-based or functional assay.
Setting [3] is: 0.2 mg/kg, C57BL/6N male mice, single subcutaneous dose 0.2 mg/5 mL/kg, plasma.
Where [4] appears, read: 0.2 mg/kg, C57BL/6N male mice, single subcutaneous dose 0.2 mg/5 mL/kg, plasma, read-out: T1/2 (converted).
[5] abbreviates: 0.2 mg/kg, C57BL/6N male mice, single subcutaneous dose 0.2 mg/5 mL/kg, plasma, read-out: Tmax.

Where two headings read alike, the source gives them in different places. Numbered stars: 1 amine (or outer) side, 2 acyl side, 3 side chain; on linkers, the order of the positions; unused ones are H or OH. Side chains are listed from the residue outwards. Ends that are not written are not given here. Peptide text beside a SMILES is read from it. * marks the point of attachment. mPEG 3.4 kDa = 3.4 kDa maleimidated PEG on Cys; C18 diacid = O=C(O)CCCCCCCCCCCCCCCCC(=O)*; γGlu = O=C(O)[C@H](CCC(=O)[*:2])N[*:1]; Palmitoyl = CCCCCCCCCCCCCCCC(=O)*

GLP-1R (on GLP-1R/CHO cells, DiscoverX 95-0062C2), sequence (P43220 24-463 limits assumed): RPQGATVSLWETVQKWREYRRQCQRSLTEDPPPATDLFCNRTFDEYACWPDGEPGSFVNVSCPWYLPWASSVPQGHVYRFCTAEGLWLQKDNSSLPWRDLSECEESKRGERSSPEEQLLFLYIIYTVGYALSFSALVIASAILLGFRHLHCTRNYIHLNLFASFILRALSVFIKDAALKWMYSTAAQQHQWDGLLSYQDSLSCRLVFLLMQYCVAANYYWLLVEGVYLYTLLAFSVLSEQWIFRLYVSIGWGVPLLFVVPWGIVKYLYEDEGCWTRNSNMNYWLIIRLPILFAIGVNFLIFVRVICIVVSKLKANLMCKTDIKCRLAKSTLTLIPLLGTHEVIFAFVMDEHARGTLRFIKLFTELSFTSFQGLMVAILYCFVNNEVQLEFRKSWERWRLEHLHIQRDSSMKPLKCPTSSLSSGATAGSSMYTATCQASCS

On to `CC[C@H](C)[C@H](NC(=O)[C@H](Cc1ccccc1)NC(=O)[C@H](CC(=O)O)NC(=O)[C@H](CCCNC(=N)N)NC(=O)[C@H](C)NC(=O)[C@H](C)NC(=O)[C@H](CC(C)C)NC(=O)[C@H](CC(N)=O)NC(=O)[C@H](CC(=O)O)NC(=O)[C@H](CC(C)C)NC(=O)[C@@H](NC(=O)[C@@H](NC(=O)[C@H](CC(N)=O)NC(=O)[C@H](CCSC)NC(=O)[C@H](CCC(=O)O)NC(=O)[C@H](CC(=O)O)NC(=O)[C@H](CO)NC(=O)[C@H](Cc1ccccc1)NC(=O)[C@H](CO)NC(=O)CNC(=O)[C@H](CC(=O)O)NC(=O)[C@H](C)NC(=O)[C@@H](N)Cc1c[nH]cn1)[C@@H](C)O)[C@@H](C)CC)C(=O)N[C@@H](CC(N)=O)C(=O)N[C@@H](Cc1c[nH]c2ccccc12)C(=O)N[C@@H](CC(C)C)C(=O)N[C@H](C(=O)N[C@@H](CCC(N)=O)C(=O)N[C@H](C(=O)N[C@@H](CCCCN)C(=O)N[C@H](C(=O)N[C@H](C(=O)N[C@@H](CC(=O)O)C(=O)O)[C@@H](C)O)[C@@H](C)CC)[C@@H](C)O)[C@@H](C)CC` [GLP-2 (Synthesized), GLP-2, reference compound], for which the “GLP-2 activity Compared to GLP-2” value at GLP-2 (Example 5, relative to GLP-2) came to 100%.
Regarding `CC[C@H](C)[C@H](NC(=O)[C@H](Cc1ccccc1)NC(=O)[C@H](CC(=O)O)NC(=O)[C@H](CCCNC(=N)N)NC(=O)[C@H](C)NC(=O)[C@H](C)NC(=O)[C@H](CC(C)C)NC(=O)[C@H](C)NC(=O)[C@H](CC(=O)O)NC(=O)[C@H](CC(C)C)NC(=O)[C@H](Cc1ccc(O)cc1)NC(=O)[C@@H](NC(=O)[C@H](CO)NC(=O)[C@H](CC(C)C)NC(=O)[C@H](CC(=O)O)NC(=O)[C@H](CO)NC(=O)[C@@H](NC(=O)[C@H](Cc1ccccc1)NC(=O)[C@@H](NC(=O)CNC(=O)[C@H](CCC(=O)O)NC(=O)CNC(=O)[C@@H](N)Cc1c[nH]cn1)[C@@H](C)O)[C@@H](C)O)[C@@H](C)O)C(=O)N[C@@H](CC(N)=O)C(=O)N[C@@H](Cc1c[nH]c2ccccc12)C(=O)N[C@@H](CC(C)C)C(=O)N[C@H](C(=O)N[C@@H](CCC(N)=O)C(=O)N[C@H](C(=O)N[C@@H](CCCCN)C(=O)N[C@H](C(=O)N[C@H](C(=O)N[C@@H](CC(=O)O)C(=O)N[C@@H](CCCCN)C(=O)N[C@@H](CCCCNC(=O)CC[C@H](NC(=O)CCCCCCCCCCCCCCCCC(=O)O)C(=O)O)C(=O)O)[C@@H](C)O)[C@@H](C)CC)[C@@H](C)O)[C@@H](C)CC` [HU020M1] (HELM PEPTIDE1{H.G.E.G.T.F.T.S.D.L.S.T.Y.L.D.A.L.A.A.R.D.F.I.N.W.L.I.Q.T.K.I.T.D.K.K}|PEPTIDE2{[O=C(O)CCCCCCCCCCCCCCCCC(=O)[*:2]].[gGlu]}$PEPTIDE1,PEPTIDE2,35:R3-2:R2$$$V2.0), in data set [1] (male, C57BL/6N), the Tmax was determined as 12 h and the half-life was 828 min.
In the case of `CCCCCCCCCCCCCCCC(=O)N[C@@H](CCC(=O)NCCCC[C@H](NC(=O)[C@H](CCCCN)NC(=O)[C@H](CC(=O)O)NC(=O)[C@@H](NC(=O)[C@@H](NC(=O)[C@H](CCCCN)NC(=O)[C@@H](NC(=O)[C@H](CCC(N)=O)NC(=O)[C@@H](NC(=O)[C@H](CC(C)C)NC(=O)[C@H](Cc1c[nH]c2ccccc12)NC(=O)[C@H](CC(N)=O)NC(=O)[C@@H](NC(=O)[C@H](Cc1ccccc1)NC(=O)[C@H](CC(=O)O)NC(=O)[C@H](CCCNC(=N)N)NC(=O)[C@H](C)NC(=O)[C@H](C)NC(=O)[C@H](CC(C)C)NC(=O)[C@H](C)NC(=O)[C@H](CC(=O)O)NC(=O)[C@H](CC(C)C)NC(=O)[C@H](Cc1ccc(O)cc1)NC(=O)[C@@H](NC(=O)[C@H](CO)NC(=O)[C@H](CC(C)C)NC(=O)[C@H](CC(=O)O)NC(=O)[C@H](CO)NC(=O)[C@@H](NC(=O)[C@H](Cc1ccccc1)NC(=O)[C@@H](NC(=O)CNC(=O)[C@H](CCC(=O)O)NC(=O)C(C)(C)NC(=O)[C@@H](N)Cc1c[nH]cn1)[C@@H](C)O)[C@@H](C)O)[C@@H](C)O)[C@@H](C)CC)[C@@H](C)CC)[C@@H](C)O)[C@@H](C)CC)[C@@H](C)O)C(=O)O)C(=O)O` [HU020M3] (HELM PEPTIDE1{H.[Aib].E.G.T.F.T.S.D.L.S.T.Y.L.D.A.L.A.A.R.D.F.I.N.W.L.I.Q.T.K.I.T.D.K.K}|PEPTIDE2{[CCCCCCCCCCCCCCCC(=O)[*:2]].[gGlu]}$PEPTIDE1,PEPTIDE2,35:R3-2:R2$$$V2.0), in data set [1] (setting [3]), the AUC(0-t) came out at 5070 ng·h/mL and the Cmax is 315 ng/mL. Moreover, the half-life in data set [1] (setting [4]) is 420 min. For the same molecule, the Tmax in data set [1] (setting [5]) is 12 h.
With `CC[C@H](C)[C@H](NC(=O)[C@H](Cc1ccccc1)NC(=O)[C@H](CC(=O)O)NC(=O)[C@H](CCCNC(=N)N)NC(=O)[C@H](C)NC(=O)[C@H](C)NC(=O)[C@H](CC(C)C)NC(=O)[C@H](C)NC(=O)[C@H](CC(=O)O)NC(=O)[C@H](CC(C)C)NC(=O)[C@H](Cc1ccc(O)cc1)NC(=O)[C@@H](NC(=O)[C@H](CO)NC(=O)[C@H](CC(C)C)NC(=O)[C@H](CC(=O)O)NC(=O)[C@H](CO)NC(=O)[C@@H](NC(=O)[C@H](Cc1ccccc1)NC(=O)[C@@H](NC(=O)CNC(=O)[C@H](CCC(=O)O)NC(=O)C(C)(C)NC(=O)[C@@H](N)Cc1c[nH]cn1)[C@@H](C)O)[C@@H](C)O)[C@@H](C)O)C(=O)N[C@@H](CC(N)=O)C(=O)N[C@@H](Cc1c[nH]c2ccccc12)C(=O)N[C@@H](CC(C)C)C(=O)N[C@H](C(=O)N[C@@H](CCC(N)=O)C(=O)N[C@H](C(=O)N[C@@H](CCCCN)C(=O)N[C@H](C(=O)N[C@H](C(=O)N[C@@H](CC(=O)O)C(=O)N[C@@H](CCCCN)C(=O)N[C@@H](CCCCNC(=O)CC[C@H](NC(=O)CCCCCCCCCCCCCCCCC(=O)O)C(=O)O)C(=O)O)[C@@H](C)O)[C@@H](C)CC)[C@@H](C)O)[C@@H](C)CC` [HU020M4] (HELM PEPTIDE1{H.[Aib].E.G.T.F.T.S.D.L.S.T.Y.L.D.A.L.A.A.R.D.F.I.N.W.L.I.Q.T.K.I.T.D.K.K}|PEPTIDE2{[O=C(O)CCCCCCCCCCCCCCCCC(=O)[*:2]].[gGlu]}$PEPTIDE1,PEPTIDE2,35:R3-2:R2$$$V2.0), the “half-life longer than that of semaglutide” value in data set [1] (mouse PK, relative to semaglutide) was found to be 1.5 fold. In addition, in data set [1] (setting [3]), the AUC(0-t) was 23800 ng·h/mL and the highest concentration (Cmax) amounted to 810 ng/mL. Besides, the half-life in data set [1] (setting [4]) was 642 min. Besides, the Tmax in data set [1] (setting [5]) was determined as 8 h.
In the case of `CC[C@H](C)[C@H](NC(=O)[C@H](Cc1ccccc1)NC(=O)[C@H](CC(=O)O)NC(=O)[C@H](CCCNC(=N)N)NC(=O)[C@H](C)NC(=O)[C@H](C)NC(=O)[C@H](CC(C)C)NC(=O)[C@H](C)NC(=O)[C@H](CC(=O)O)NC(=O)[C@H](CC(C)C)NC(=O)[C@H](Cc1ccc(O)cc1)NC(=O)[C@@H](NC(=O)[C@H](CO)NC(=O)[C@H](CC(C)C)NC(=O)[C@H](CC(=O)O)NC(=O)[C@H](CO)NC(=O)[C@@H](NC(=O)[C@H](Cc1ccccc1)NC(=O)[C@@H](NC(=O)CNC(=O)[C@H](CCC(=O)O)NC(=O)C(C)(C)NC(=O)[C@@H](N)Cc1c[nH]cn1)[C@@H](C)O)[C@@H](C)O)[C@@H](C)O)C(=O)N[C@@H](CC(N)=O)C(=O)N[C@@H](Cc1c[nH]c2ccccc12)C(=O)N[C@@H](CC(C)C)C(=O)N[C@H](C(=O)N[C@@H](CCC(N)=O)C(=O)N[C@H](C(=O)N[C@@H](CCCCN)C(=O)N[C@H](C(=O)N[C@H](C(=O)N[C@@H](CC(=O)O)C(=O)N[C@@H](CCCCN)C(=O)N[C@@H](CCCCNC(=O)CC[C@H](NC(=O)CCCCCCCCCCCCCCCCCCC(=O)O)C(=O)O)C(=O)O)[C@@H](C)O)[C@@H](C)CC)[C@@H](C)O)[C@@H](C)CC` [HU020M5] (HELM PEPTIDE1{H.[Aib].E.G.T.F.T.S.D.L.S.T.Y.L.D.A.L.A.A.R.D.F.I.N.W.L.I.Q.T.K.I.T.D.K.K}|PEPTIDE2{[O=C(O)CCCCCCCCCCCCCCCCCCC(=O)[*:2]].[gGlu]}$PEPTIDE1,PEPTIDE2,35:R3-2:R2$$$V2.0), in data set [1] (setting [3]), the AUC(0-t) is 20500 ng·h/mL and the Cmax amounted to 661 ng/mL. In data set [1] (setting [4]), the half-life was 912 min. For the same molecule, the Tmax in data set [1] (setting [5]) worked out at 8 h.
On GLP-2 (Example 5), “HGEGTFTSDLSTYLDALAARDFINWLIQTKITD [HU020]” had an EC50 of 650 nM.
In the case of HGEGTFTSDLSTYLDALAARDFINWLIQTKITDKK([γGlu-C18 diacid]) [HU020M1], in data set [2], the “GLP-1 activity (EC50, pM)” value was found to be 113 pM and the “GLP-1 activity, Compared to GLP-1 (Exendin-4)” value is 6.3%.
Consider HGEGTFTSDLSTYLDALAAC(mPEG 3.4 kDa)DFINWLIQTKITDKK([γGlu-Palmitoyl]) [HU020M6], for which, in data set [2], the “GLP-1 activity (EC50, pM)” value stood at 45.7 pM and the “GLP-1 activity, Compared to GLP-1 (Exendin-4)” value worked out at 15.5%.

For orientation: Tmax means the time at which the peak concentration occurs. A word on the AUC(0-t): it is exposure summed from dosing to a finite time, without extrapolation to infinity. A lower AUC(0-t) goes with less exposure. For orientation: Cmax means the peak of the concentration-time curve. A word on the EC50: it is the concentration giving half of the maximal effect. A high value points to weaker potency.
